In patent US11040952B2, “Phthalazinone compound, method for preparation thereof, pharmaceutical composition thereof, and use thereof” (SHANGHAI INSTITUTE OF MATERIA MEDICA, CHINESE ACADEMY OF …, priority 2017, dated 2021):

Legend:
[1] = tested on: HBV; test: HBV DNA content in the supernatant of cell culture (real-time PCR); assay type: cell-based, hepatitis B virus (HBV); settings: Hepatitis B virus, HepG2.2.15, 192 h, inhibition of HBV DNA replication, HepG2.2.15 supernatant, 8 days
Experimental: (§1) Human hepatoblastoma cell line HepG2.2.15 stably transfected with full-length HBV (provided by Shanghai Institute of Materia Medica, Chinese Academy of Sciences)
(§2) HepG2.2.15 cells were cultured and passaged according to conventional methods. DMEM containing 10% (v/v) bovine serum and the selective antibiotic G418 was used as a medium, the cells were cultured in an incubator at 37° C. under 5% CO2 for 8 days (the medium was exchanged on the 4th day).
(§3) The test compounds were formulated with DMSO into a 40 mM stock solution, which was then prepared into a solution at the defined highest concentration using a DMEM medium containing 10% Hyclone™ Fetal Bovine Serum, followed by diluting the same; the positive drug was lamivudine, which was also prepared into a solution at the defined concentration with the DMEM medium containing 10% Hyclone™ Fetal Bovine Serum.
HepG2.2.15 cells were treated with compounds at different concentrations for 8 days (the medium was exchanged on the 4th day), and the supernatant was aspirated, and the HBV DNA contained in the mature virus particles in the supernatant was quantitated by using a real-time PCR method.
1) The supernatant DNA from a 96-well plate, 200 μl/well, was collected, wherein the contents in the duplicate wells were collected into a same EP tube, and centrifuged at 4000 rcf for 5 min, and the supernatant was collected;
2) 200 μl of the supernatant was added into a 1.5 ml EP tube, added with 20 μl of proteinase K and 200 μl of Buffer AL (Qiagen, DNeasy® Blood & Tissue Kit), vortexed to be mixed thoroughly, and incubated at 56° C. for 10 min;
3) 200 μl of ethanol was added and vortexed to be mixed thoroughly;
4) all the liquid obtained from step 3) was added into a DNeasy Mini spin column (Qiagen, DNeasy® Blood & Tissue Kit) placed in a 2 ml waste liquid collection tube, and centrifuged at 6000 rcf for 1 min, and the supernatant was discarded;
5) the DNeasy Mini spin column was placed in a new 2 ml waste liquid collection tube, added with 500 μl of Buffer AW1 (Qiagen, DNeasy® Blood & Tissue Kit), and centrifuged at 6000 rcf for 1 min, and the supernatant was discarded;
6) the DNeasy Mini spin column was placed in a new 2 ml waste liquid collection tube, added with 500 μl of Buffer AW2, (Qiagen, DNeasy® Blood & Tissue Kit), and centrifuged at 20000 rcf for 3 min, and the supernatant was discarded;
7) the DNeasy Mini spin column was placed in anew 1.5 ml EP tube, 50 μl of Buffer AE (Qiagen, DNeasy® Blood & Tissue Kit) was pipetted and directly applied onto the membrane of the DNeasy Mini spin column, which was then left at room temperature for 5 min, and centrifuged at 6000 rcf for 1 min to elute the DNA from the membrane, the DNeasy Mini spin column was discarded, and the DNA sample was collected and stored at −20° C.
1) Standard curve: 1e^7-1e^4 IU/ml, the sample amount was 1 μl, a blank well was set so as to check whether the reaction system is polluted or not;
2) 1 μl of a DNA sample was added in sequence;
3) Addition of enzyme and reaction buffer: two tubes of the reaction solution were first added into the enzyme, mixed well and centrifuged slightly, placed on ice, added with the sample, followed by addition of 19 μl of the enzyme reaction solution, wherein, during the addition, the DNA sample should be sure of not being touched to cause contamination;
4) the sample was sealed with a sealing film and centrifuged;
Stage 2: 10 cycles • Step 1: 93° C., 45 s • Step 2: 55° C., 1 min Stage 3: 45 cycles • Step 1: 93° C., 30 s • Step 2: 55° C., 45 s
Detection: data were collected after completing the step 2 (55° C., 45 s) of the stage 3.
The experimental data were processed by using the Origin software and IC50 was calculated.

[2] = MTT assay for cytotoxicity; assay type: cell-based, Human; settings: human, HepG2.2.15 cells, half (50%) lethal concentration
Experimental: as §1, §2, §3
HepG2.2.15 cells were seeded at 5×10^3 cells/well in a 96-well plate, and cultured for eight days in the presence of the compounds according to the above method, and then 200 μl of the supernatant was taken out, followed by addition of the MTT solution. After 4 hours of culture, a lysate was added. After 12 hours of culture, the OD570 was measured on a microplate reader. By comparing with the absorbance of the control well, the percentage of viable cells was calculated, and CC50, the concentration required for the reduction of cell viability by 50%, was calculated.

## CCNCCCNc1nc(F)c(-c2nn(Cc3ccc(C#N)cc3)c(=O)c3ccccc23)cc1Cl [IV-54]
[1]
  IC50: 0.47 µM
[2]
  CC50 at 8 days: 8.55 µM

## Cc1ccc(-c2nn(Cc3ccc(Cl)cc3)c(=O)c3cc(C)c(C)cc23)c(F)n1 [Compound V-4]
[1]
  IC50: 1.3 µM
[2]
  CC50 at 8 days: > 100 µM

## CCOCCNc1nc(F)c(-c2nn(Cc3ccc(C#N)cc3)c(=O)c3ccccc23)cc1Cl [IV-42]
[1]
  IC50: 0.292 µM
[2]
  CC50 at 8 days: 29.8 µM

## N#Cc1ccc(Cn2nc(-c3cc(Cl)cnc3F)c3ccccc3c2=O)cc1 [Compound I-40]
[1]
  IC50: 0.051 µM
[2]
  CC50 at 8 days: > 100 µM

## N#Cc1ccc(Cn2nc(-c3cc(Cl)c(NCCC(=O)O)nc3F)c3ccccc3c2=O)cc1 [IV-63]
[1]
  IC50: 0.262 µM
[2]
  CC50 at 8 days: > 100 µM

## Cc1ccc(-c2nn(Cc3ccc(Cl)cc3)c(=O)c3ccc(C(F)(F)F)cc23)c(F)n1 [Compound V-8]
[1]
  IC50: 1.1 µM
[2]
  CC50 at 8 days: > 100 µM

## COCCNc1ccc(-c2nn(Cc3ccc(Cl)cc3)c(=O)c3ccccc23)c(F)n1 [IV-28]
[1]
  IC50: 0.191 µM
[2]
  CC50 at 8 days: 21.3 µM

## CCOC(=O)CCCNc1ccc(-c2nn(Cc3ccc(C#N)cc3)c(=O)c3ccccc23)c(F)n1 [IV-35]
[1]
  IC50: 1.23 µM
[2]
  CC50 at 8 days: > 100 µM

## O=c1c2ccccc2c(-c2ccc(C3CC3)nc2F)nn1Cc1ccc(Cl)cc1 [Compound I-31]
[1]
  IC50: 0.6 µM
[2]
  CC50 at 8 days: > 100 µM

## CC(C)(C)OC(=O)NCCCCNc1nc(F)c(-c2nn(Cc3ccc(C#N)cc3)c(=O)c3ccccc23)cc1Cl [IV-46]
[1]
  IC50: 0.014 µM
[2]
  CC50 at 8 days: > 100 µM

## N#Cc1ccc(Cn2nc(-c3cccnc3)c3ccccc3c2=O)cc1 [IV-1]
[1]
  IC50: 5.4 µM
[2]
  CC50 at 8 days: > 100 µM

## CC(C)(C)OC(=O)CCCNc1nc(F)c(-c2nn(Cc3ccc(C#N)cc3)c(=O)c3ccccc23)cc1Cl [IV-51]
[1]
  IC50: 0.092 µM
[2]
  CC50 at 8 days: 89.9 µM

## [2H]C([2H])([2H])c1ccc(-c2nn(Cc3ccc(Cl)cc3)c(=O)c3ccccc23)c(F)n1 [Compound I-34]
[1]
  IC50: 0.2 µM
[2]
  CC50 at 8 days: > 100 µM

## CC(C)(C)OC(=O)COCCNc1ccc(-c2nn(Cc3ccc(C#N)cc3)c(=O)c3ccccc23)c(F)n1 [IV-58]
[1]
  IC50: 5.3 µM
[2]
  CC50 at 8 days: > 100 µM

## Nc1ccc(-c2nn(Cc3ccc(Cl)cc3)c(=O)c3ccccc23)cn1 [Compound I-5]
[1]
  IC50: 1.5 µM
[2]
  CC50 at 8 days: 51.8 µM

## COC(=O)CCCNc1ccc(-c2nn(Cc3ccc(C#N)cc3)c(=O)c3ccccc23)c(F)n1 [IV-64]
[1]
  IC50: 1.22 µM
[2]
  CC50 at 8 days: > 100 µM

## [2H]C(c1ccc(C#N)cc1)n1nc(-c2ccc(F)nc2F)c2ccccc2c1=O (stereo not shown) [IV-17]
[1]
  IC50: 0.13 µM
[2]
  CC50 at 8 days: > 100 µM

## O=c1c2ccccc2c(-c2cc(Cl)cnc2F)nn1Cc1ccc(Cl)cc1 [Compound I-39]
[1]
  IC50: 0.21 µM
[2]
  CC50 at 8 days: > 25 µM

## CN(C)CCNc1ccc(-c2nn(Cc3ccc(Cl)cc3)c(=O)c3ccccc23)c(F)n1 [Compound I-21]
[1]
  IC50: 1.6 µM
[2]
  CC50 at 8 days: > 100 µM

## CNc1ccc(-c2nn(Cc3ccc(C#N)cc3)c(=O)c3ccccc23)c(F)n1 [IV-8]
[1]
  IC50: 0.9 µM
[2]
  CC50 at 8 days: > 100 µM

## Cc1ccc(-c2nn(Cc3ccc(C#N)cc3)c(=O)c3ccccc23)c(F)n1 [IV-6]
[1]
  IC50: 0.8 µM
[2]
  CC50 at 8 days: > 100 µM

## CCNCCNc1ccc(-c2nn(Cc3ccc(C#N)cc3)c(=O)c3ccccc23)c(F)n1 [IV-47]
[1]
  IC50: 1.72 µM
[2]
  CC50 at 8 days: 13 µM

## N#Cc1ccc(Cn2nc(-c3ccc(NCC4CCOCC4)nc3F)c3ccccc3c2=O)cc1 [IV-25]
[1]
  IC50: 1.2 µM
[2]
  CC50 at 8 days: 54.1 µM

## Cc1ccc2c(=O)n(Cc3ccc(Cl)cc3)nc(-c3ccc(C)nc3F)c2c1 [Compound V-3]
[1]
  IC50: 1.5 µM
[2]
  CC50 at 8 days: > 100 µM

## CC(C)(C)OC(=O)CCNc1ccc(-c2nn(Cc3ccc(C#N)cc3)c(=O)c3ccccc23)c(F)n1 [IV-61]
[1]
  IC50: 0.465 µM
[2]
  CC50 at 8 days: 195 µM

## Cc1ncc(-c2nn(Cc3ccc(Cl)cc3)c(=O)c3ccccc23)cn1 [II-4]
[1]
  IC50: 7.1 µM
[2]
  CC50 at 8 days: 97.6 µM

## O=c1c2ccccc2c(-c2ccc(C(F)(F)F)nc2F)nn1Cc1ccc(Cl)cc1 [Compound I-19]
[1]
  IC50: 0.2 µM
[2]
  CC50 at 8 days: 77.5 µM

## N#Cc1ccc(Cn2nc(-c3cc(Cl)cnc3F)c3ccccc3c2=O)c(F)c1 [Compound I-42]
[1]
  IC50: 0.378 µM
[2]
  CC50 at 8 days: 33.5 µM

## CC1(C)OCC(CNc2ccc(-c3nn(Cc4ccc(C#N)cc4)c(=O)c4ccccc34)c(F)n2)O1 (stereo not shown) [IV-78]
[1]
  IC50: 0.341 µM
[2]
  CC50 at 8 days: > 100 µM

## COc1cc2c(-c3ccc(C)nc3F)nn(Cc3ccc(Cl)cc3)c(=O)c2cc1OC [Compound V-6]
[1]
  IC50: 2.6 µM
[2]
  CC50 at 8 days: > 100 µM

## CN(C)CCNc1ccc(-c2nn(Cc3ccc(C#N)cc3)c(=O)c3ccccc23)c(F)n1 [IV-14]
[1]
  IC50: 1.5 µM
[2]
  CC50 at 8 days: > 100 µM

## CN(C)Cc1ccc(-c2nn(Cc3ccc(C#N)cc3)c(=O)c3ccccc23)c(F)n1 [IV-21]
[1]
  IC50: 1.3 µM
[2]
  CC50 at 8 days: > 100 µM

## N#Cc1ccc(Cn2nc(-c3cc(Cl)c(NCCC(F)(F)F)nc3F)c3ccccc3c2=O)cc1 [IV-84]
[1]
  IC50: < 0.098 µM
[2]
  CC50 at 8 days: 63.5 µM

## O=c1c2ccccc2c(-c2ccc(CO)nc2F)nn1Cc1ccc(Cl)cc1 [Compound I-22]
[1]
  IC50: 0.4 µM
[2]
  CC50 at 8 days: > 100 µM

## Cc1cnc(F)c(-c2nn(Cc3ccc(C#N)cc3)c(=O)c3ccccc23)c1 [Compound I-44]
[1]
  IC50: 0.294 µM
[2]
  CC50 at 8 days: 31.5 µM

## COCc1ccc(-c2nn(Cc3ccc(C#N)cc3)c(=O)c3ccccc23)c(F)n1 [IV-22]
[1]
  IC50: 3.5 µM
[2]
  CC50 at 8 days: > 100 µM

## CC(O)CNc1ccc(-c2nn(Cc3ccc(C#N)cc3)c(=O)c3ccccc23)c(F)n1 (stereo not shown) [IV-81]
[1]
  IC50: 0.334 µM
[2]
  CC50 at 8 days: 65.2 µM

## N#Cc1ccc(Cn2nc(-c3cc(Cl)c(NCCCCO)nc3F)c3ccccc3c2=O)cc1 [IV-69]
[1]
  IC50: 0.0081 µM
[2]
  CC50 at 8 days: 25 µM
